Article PMC9848300, “Discovery of novel enasidenib analogues targeting inhibition of mutant isocitrate dehydrogenase 2 as antileukaemic agents” (Journal of Enzyme Inhibition and Medicinal Chemistry, 2023)

Columns and labels:
Assay type in all cases: cell-based
[1] = tested on: 60 human subpanel cancer cell lines; test: NCI 60 antitumor screening, mean over the panel (single dose); conditions: mean over 60 cancer cell lines, single dose 10 μM
Protocol: Initially, the anticancer effects of target compounds have been assessed at a single (10 μM) dose. The obtained data have been reported as mean-graph of the percent growth (G%) of the treated cancer cells. Percentage growth inhibition (GI%) is calculated (100 − G%) and pronounced in Table 1. […] Target compounds in series (III) with manipulated linkers disclosed lower potency. Superiorly, eight s-triazine derivatives from the three series (6a, 6c, 6d, 7a, 7g, 7i, 7l, and 8b) have shown potent broad-spectrum anticancer activity against most the examined cell lines, whereas most of the remaining triazine derivatives, 20 derivatives, have exerted selective anti-proliferative actions towards certain cancer cell lines (Supplementary).
The antitumor screening was performed for 60 human cancer cell lines under the protocol of NCI (www.dtp.nci.nih.gov), the Drug Evaluation Branch, Bethesda, MD. All submitted compounds were nominated based on the degree of structural diversity and computer modelling techniques for evaluation of their anticancer activity. The screening process for antineoplastic activity passes through two successive levels, starting with the assessment of target compounds at a single dose of 10 μM against 60 cancer cell lines on nine types of human tumours. These experiments were done on a triplicate following. The output from the single‐dose screening was covered as a mean graph, and then, analysed by the COMPARE program. Finally, the compounds which disclosed subpanel cancer cell growth (G %) equal to or less than 10% in at least eight cancer cell lines get to pass the assessment against the 60 cell lines at five doses (0.01–100 μM). By using GraphPad Prism version 9.0 (Graphpad Software Inc., La Jolla, CA), GI50, TGI, as well as LC50 dose‐response parameters were computed and presented for each compound (Supplementary information)[55–57].

NCI/ADR-RES = test: NCI 60 antitumor screening (single dose / five doses); conditions: Homo sapiens
A498 = test: as above; conditions: Homo sapiens; A498, five doses (0.01–100 μM); read-out: GI50
BT-549 = test: as above; conditions: Homo sapiens
DU-145 = test: as above; conditions: Homo sapiens
COLO 205 = test: as above; conditions: Homo sapiens
MDA-MB-231/ATCC = test: as above; conditions: Homo sapiens
MDA-MB-435 = test: as above; conditions: Homo sapiens
HL-60(TB) = test: as above; conditions: Homo sapiens
EKVX = test: as above; conditions: Homo sapiens
SF-295 = test: as above; conditions: Homo sapiens
MDA-MB-468 = test: as above; conditions: Homo sapiens
RXF 393 = test: as above; conditions: Homo sapiens
SK-MEL-2 = test: as above; conditions: Homo sapiens
LOX IMVI = test: as above; conditions: Homo sapiens
SK-MEL-5 = test: as above; conditions: Homo sapiens
SN 12C = test: as above; conditions: Homo sapiens, SN12C
MOLT-4 = test: as above; conditions: Homo sapiens
SK-MEL-28 = test: as above; conditions: Homo sapiens
SNB-75 = test: as above; conditions: Homo sapiens
UACC-62 = test: as above; conditions: Homo sapiens
HCT-116 = test: as above; conditions: Homo sapiens
SK-OV-3 = test: NCI 60 antitumor screening (single dose); conditions: Homo sapiens; SK-OV-3 (ovarian cancer), single dose 10 μM; read-out: Growth inhibition percentage (GI %)
In short: (§1)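 Values are GI% (100 − G%) from the NCI 60-line single-dose screen, compound at 10 μM.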

NCI-H23 = test: NCI 60 antitumor screening (single dose); conditions: Homo sapiens; NCI-H23 (non-small cell lung cancer), single dose 10 μM; read-out: Growth inhibition percentage (GI %)
In short: as §1

OVCAR-4 = test: NCI 60 antitumor screening (single dose); conditions: Homo sapiens; OVCAR-4 (ovarian cancer), single dose 10 μM; read-out: Growth inhibition percentage (GI %)
In short: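 Test compound added at 10 μM to each of 60 human cancer lines from nine tumour types; growth measured per NCI protocol in triplicate; percent growth converted to inhibition (100 − G%).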

SR = test: NCI 60 antitumor screening (single dose / five doses); conditions: Homo sapiens
HCT-15 = test: as above; conditions: Homo sapiens
IGROV1 = test: as above; conditions: Homo sapiens, IGROV-1

Compound: Oc1ccccc1/C=N/Nc1nc(N/N=C/c2ccccc2O)nc(N2CCOCC2)n1 [compound 6a, 2-[(1e)-(2-{4-[(E)-2-[(2-Hydroxyphenyl)methylidene]hydrazin-1-yl]-6-(morpholin-4-yl)-1,3,5-triazin-2-yl}hydrazin-1-ylidene)methyl]phenol]
- Mean GI % [1]: 66.07%
- inhibition at 10 µM (NCI/ADR-RES; NCI/ADR-RES (ovarian cancer), single dose 10 μM, read-out: Growth inhibition percentage (GI %)): 77.1%
- GI50 (NCI/ADR-RES; NCI/ADR-RES, five doses (0.01–100 μM), read-out: GI50): 690 nM
- GI50 (A498): 1090 nM
- inhibition at 10 µM (BT-549; BT-549 (breast cancer), single dose 10 μM, read-out: Growth inhibition percentage (GI %)): 23.7%
- GI50 (BT-549; BT-549, five doses (0.01–100 μM), read-out: GI50): 5.19 µM
- inhibition at 10 µM (DU-145; DU-145 (prostate cancer), single dose 10 μM, read-out: Growth inhibition percentage (GI %)): 64.5%
- GI50 (DU-145; DU-145, five doses (0.01–100 μM), read-out: GI50): 6.09 µM
- inhibition at 10 µM (COLO 205; COLO 205 (colon cancer), single dose 10 μM, read-out: Growth inhibition percentage (GI %)): 52%
- GI50 (COLO 205; COLO 205, five doses (0.01–100 μM), read-out: GI50): 5.53 µM
- GI50 (MDA-MB-231/ATCC; MDA-MB-231/ ATCC, five doses (0.01–100 μM), read-out: GI50): 2420 nM
- inhibition at 10 µM (MDA-MB-231/ATCC; MDA-MB-231/ATCC (breast cancer), single dose 10 μM, read-out: Growth inhibition percentage (GI %)): 63.7%
- inhibition at 10 µM (MDA-MB-435; MDA-MB-435 (melanoma), single dose 10 μM, read-out: Growth inhibition percentage (GI %)): 41.1%
- GI50 (MDA-MB-435; MDA-MB-435, five doses (0.01–100 μM), read-out: GI50): 9.53 µM
- inhibition at 10 µM (HL-60(TB); HL-60(TB) (leukaemia), single dose 10 μM, read-out: Growth inhibition percentage (GI %)): 96.3%
- GI50 (HL-60(TB); HL-60(TB), five doses (0.01–100 μM), read-out: GI50): 190 nM
- inhibition at 10 µM (EKVX; EKVX (non-small cell lung cancer), single dose 10 μM, read-out: Growth inhibition percentage (GI %)): 77.8%
- GI50 (EKVX; EKVX, five doses (0.01–100 μM), read-out: GI50): 3.28 µM
- inhibition at 10 µM (SF-295; SF-295 (CNS cancer), single dose 10 μM, read-out: Growth inhibition percentage (GI %)): 80.4%
- GI50 (SF-295; SF-295, five doses (0.01–100 μM), read-out: GI50): 7.67 µM
- inhibition at 10 µM (MDA-MB-468; MDA-MB-468 (breast cancer), single dose 10 μM, read-out: Growth inhibition percentage (GI %)): 60.8%
- GI50 (MDA-MB-468; MDA-MB-468, five doses (0.01–100 μM), read-out: GI50): 4.11 µM
- inhibition at 10 µM (RXF 393; RXF 393 (renal cancer), single dose 10 μM, read-out: Growth inhibition percentage (GI %)): 101%
- GI50 (RXF 393; RXF 393, five doses (0.01–100 μM), read-out: GI50): 270 nM
- inhibition at 10 µM (SK-MEL-2; SK-MEL-2 (melanoma), single dose 10 μM, read-out: Growth inhibition percentage (GI %)): 28%
- GI50 (SK-MEL-2; SK-MEL-2, five doses (0.01–100 μM)): 6.06 µM
- inhibition at 10 µM (LOX IMVI; LOX IMVI (melanoma), single dose 10 μM, read-out: Growth inhibition percentage (GI %)): 96%
- GI50 (LOX IMVI; LOX IMVI, five doses (0.01–100 μM), read-out: GI50): 280 nM
- inhibition at 10 µM (SK-MEL-5; SK-MEL-5 (melanoma), single dose 10 μM, read-out: Growth inhibition percentage (GI %)): 34.2%
- GI50 (SK-MEL-5; SK-MEL-5, five doses (0.01–100 μM), read-out: GI50): 5.86 µM
- inhibition at 10 µM (SN 12C; SN 12C (renal cancer), single dose 10 μM, read-out: Growth inhibition percentage (GI %)): 72.8%
- GI50 (SN 12C; SN 12C, five doses (0.01–100 μM), read-out: GI50): 18.3 µM
- inhibition at 10 µM (MOLT-4; MOLT-4 (leukaemia), single dose 10 μM, read-out: Growth inhibition percentage (GI %)): 54.9%
- GI50 (MOLT-4; MOLT-4, five doses (0.01–100 μM), read-out: GI50): 1550 nM
- inhibition at 10 µM (SK-MEL-28; SK-MEL-28 (melanoma), single dose 10 μM, read-out: Growth inhibition percentage (GI %)): 72%
- GI50 (SK-MEL-28; SK-MEL-28, five doses (0.01–100 μM), read-out: GI50): 3.2 µM
- inhibition at 10 µM (SNB-75; SNB-75 (CNS cancer), single dose 10 μM, read-out: Growth inhibition percentage (GI %)): 104%
- GI50 (SNB-75; SNB-75, five doses (0.01–100 μM), read-out: GI50): 1820 nM
- inhibition at 10 µM (UACC-62; UACC-62 (melanoma), single dose 10 μM, read-out: Growth inhibition percentage (GI %)): 11.2%
- GI50 (UACC-62; UACC-62, five doses (0.01–100 μM), read-out: GI50): 2450 nM
- inhibition at 10 µM (HCT-116; HCT-116 (colon cancer), single dose 10 μM, read-out: Growth inhibition percentage (GI %)): 80.8%
- GI50 (HCT-116; HCT-116, five doses (0.01–100 μM), read-out: GI50): 820 nM
- inhibition at 10 µM (SK-OV-3): 88.1%
- inhibition at 10 µM (NCI-H23): 58.5%
- inhibition at 10 µM (OVCAR-4): 88.2%
- inhibition at 10 µM (SR; SR (leukaemia), single dose 10 μM, read-out: Growth inhibition percentage (GI %)): 84%
- GI50 (SR; SR, five doses (0.01–100 μM), read-out: GI50): 320 nM
- inhibition at 10 µM (HCT-15; HCT-15 (colon cancer), single dose 10 μM, read-out: Growth inhibition percentage (GI %)): 96.1%
- GI50 (HCT-15; HCT-15, five doses (0.01–100 μM), read-out: GI50): 240 nM
- inhibition at 10 µM (IGROV1; IGROV1 (ovarian cancer), single dose 10 μM, read-out: Growth inhibition percentage (GI %)): 63%
- GI50 (IGROV1; IGROV1, five doses (0.01–100 μM), read-out: GI50): 970 nM
